In the NIST ThermoML archive (doi:10.1016/j.jct.2018.07.029):
“And” between values parts separate entries of the source, which are not always exact repeats. Equal values may be shown once. Numbers after ± are expanded uncertainties.

Conditions: Liquid, Transpiration method

CCOC(=O)C(C)O (racemic) [DL-ethyl lactate]
vapor or sublimation pressure (274.6 K): 0.0432 ± 0.0028 kPa | vapor or sublimation pressure (276.6 K): 0.0506 ± 0.0033 kPa | vapor or sublimation pressure (279.6 K): 0.0659 ± 0.0042 kPa | vapor or sublimation pressure (281.4 K): 0.0743 ± 0.0048 kPa | vapor or sublimation pressure (283.6 K): 0.0901 ± 0.0057 kPa | vapor or sublimation pressure (284.6 K): 0.095 ± 0.006 kPa | vapor or sublimation pressure (285.8 K): 0.1032 ± 0.0067 kPa | vapor or sublimation pressure (287.6 K): 0.1266 ± 0.0081 kPa and 0.1265 ± 0.0081 kPa | vapor or sublimation pressure (288.4 K): 0.1302 ± 0.0082 kPa | vapor or sublimation pressure (290.2 K): 0.1492 ± 0.0094 kPa | vapor or sublimation pressure (290.3 K): 0.1456 ± 0.0093 kPa | vapor or sublimation pressure (291.1 K): 0.162 ± 0.01 kPa | vapor or sublimation pressure (293.5 K): 0.1923 ± 0.012 kPa | vapor or sublimation pressure (296.4 K): 0.2396 ± 0.015 kPa | vapor or sublimation pressure (298.5 K): 0.2828 ± 0.018 kPa | vapor or sublimation pressure (301.5 K): 0.3655 ± 0.023 kPa | vapor or sublimation pressure (302.5 K): 0.3751 ± 0.024 kPa | vapor or sublimation pressure (304.5 K): 0.4491 ± 0.028 kPa | vapor or sublimation pressure (305.3 K): 0.4793 ± 0.03 kPa | vapor or sublimation pressure (307.2 K): 0.5251 ± 0.033 kPa | vapor or sublimation pressure (308.2 K): 0.5766 ± 0.036 kPa | vapor or sublimation pressure (310.1 K): 0.6332 ± 0.039 kPa and 0.6327 ± 0.039 kPa | vapor or sublimation pressure (311.3 K): 0.6892 ± 0.043 kPa

CCCCOC(=O)C(C)O (stereo not given) [butyl 2-hydroxypropanoate]
vapor or sublimation pressure (273.6 K): 0.00576 ± 0.00045 kPa | vapor or sublimation pressure (274.1 K): 0.00627 ± 0.00047 kPa | vapor or sublimation pressure (276.6 K): 0.00823 ± 0.00056 kPa | vapor or sublimation pressure (277.2 K): 0.00868 ± 0.00058 kPa | vapor or sublimation pressure (279.2 K): 0.00996 ± 0.00066 kPa | vapor or sublimation pressure (280.7 K): 0.0112 ± 0.0008 kPa | vapor or sublimation pressure (281.8 K): 0.0133 ± 0.001 kPa | vapor or sublimation pressure (283.2 K): 0.0141 ± 0.001 kPa | vapor or sublimation pressure (285.4 K): 0.0178 ± 0.0012 kPa | vapor or sublimation pressure (287.3 K): 0.0215 ± 0.0015 kPa | vapor or sublimation pressure (290.3 K): 0.0272 ± 0.0018 kPa | vapor or sublimation pressure (291.8 K): 0.0324 ± 0.0021 kPa | vapor or sublimation pressure (293.3 K): 0.0375 ± 0.0025 kPa | vapor or sublimation pressure (296.2 K): 0.0442 ± 0.0028 kPa | vapor or sublimation pressure (299.2 K): 0.0601 ± 0.0038 kPa | vapor or sublimation pressure (302.2 K): 0.0712 ± 0.0046 kPa | vapor or sublimation pressure (305.1 K): 0.0952 ± 0.006 kPa | vapor or sublimation pressure (308.1 K): 0.1148 ± 0.0088 kPa | vapor or sublimation pressure (308.5 K): 0.1253 ± 0.0094 kPa | vapor or sublimation pressure (311 K): 0.1483 ± 0.0092 kPa | vapor or sublimation pressure (313 K): 0.1639 ± 0.01 kPa | vapor or sublimation pressure (314.5 K): 0.1944 ± 0.012 kPa | vapor or sublimation pressure (317 K): 0.2271 ± 0.014 kPa | vapor or sublimation pressure (318.9 K): 0.2521 ± 0.016 kPa | vapor or sublimation pressure (322.9 K): 0.3526 ± 0.022 kPa

CCOC(=O)[C@@H](C)O [ethyl D-lactate]
vapor or sublimation pressure (274.4 K): 0.0419 ± 0.0028 kPa | vapor or sublimation pressure (276.4 K): 0.0495 ± 0.0031 kPa | vapor or sublimation pressure (278.2 K): 0.0568 ± 0.0036 kPa | vapor or sublimation pressure (280.3 K): 0.0665 ± 0.0042 kPa | vapor or sublimation pressure (282.3 K): 0.0765 ± 0.0048 kPa | vapor or sublimation pressure (283.2 K): 0.0834 ± 0.0053 kPa | vapor or sublimation pressure (285.4 K): 0.0995 ± 0.0063 kPa | vapor or sublimation pressure (286.2 K): 0.1081 ± 0.0069 kPa | vapor or sublimation pressure (289.2 K): 0.1358 ± 0.0086 kPa | vapor or sublimation pressure (291.3 K): 0.1583 ± 0.0099 kPa | vapor or sublimation pressure (293.2 K): 0.1868 ± 0.012 kPa | vapor or sublimation pressure (295.2 K): 0.2114 ± 0.013 kPa | vapor or sublimation pressure (297.3 K): 0.2551 ± 0.016 kPa | vapor or sublimation pressure (298.4 K): 0.2762 ± 0.017 kPa and 0.2718 ± 0.017 kPa | vapor or sublimation pressure (299.2 K): 0.2886 ± 0.018 kPa | vapor or sublimation pressure (301.3 K): 0.3466 ± 0.022 kPa | vapor or sublimation pressure (303.2 K): 0.3937 ± 0.025 kPa | vapor or sublimation pressure (305.2 K): 0.4603 ± 0.029 kPa | vapor or sublimation pressure (306.2 K): 0.479 ± 0.03 kPa | vapor or sublimation pressure (307.3 K): 0.5225 ± 0.033 kPa | vapor or sublimation pressure (308.2 K): 0.5581 ± 0.035 kPa | vapor or sublimation pressure (308.3 K): 0.5768 ± 0.036 kPa | vapor or sublimation pressure (310.3 K): 0.6462 ± 0.041 kPa | vapor or sublimation pressure (311.3 K): 0.7011 ± 0.044 kPa | vapor or sublimation pressure (313.2 K): 0.7624 ± 0.047 kPa | vapor or sublimation pressure (314.2 K): 0.8127 ± 0.051 kPa | vapor or sublimation pressure (316.3 K): 0.9517 ± 0.059 kPa | vapor or sublimation pressure (318.2 K): 1.048 ± 0.065 kPa

CC(C)OC(=O)[C@H](C)O [isopropyl (S)-2-hydroxypropionate]
vapor or sublimation pressure (283.4 K): 0.0862 ± 0.0056 kPa | vapor or sublimation pressure (288.3 K): 0.1239 ± 0.0078 kPa | vapor or sublimation pressure (293.3 K): 0.1774 ± 0.011 kPa | vapor or sublimation pressure (298.3 K): 0.2401 ± 0.015 kPa | vapor or sublimation pressure (303.2 K): 0.3239 ± 0.02 kPa | vapor or sublimation pressure (306.8 K): 0.4055 ± 0.025 kPa

CCCCCOC(=O)C(C)O (stereo not given) [pentyl 2-hydroxypropanoate]
vapor or sublimation pressure (303.4 K): 0.026 ± 0.0017 kPa | vapor or sublimation pressure (305.3 K): 0.0299 ± 0.002 kPa | vapor or sublimation pressure (307.3 K): 0.038 ± 0.0023 kPa | vapor or sublimation pressure (309.3 K): 0.0421 ± 0.0027 kPa | vapor or sublimation pressure (311.4 K): 0.0517 ± 0.0033 kPa | vapor or sublimation pressure (313.3 K): 0.0565 ± 0.0036 kPa | vapor or sublimation pressure (315.4 K): 0.0714 ± 0.0036 kPa | vapor or sublimation pressure (317.4 K): 0.0833 ± 0.0053 kPa | vapor or sublimation pressure (319.4 K): 0.0946 ± 0.006 kPa | vapor or sublimation pressure (321.4 K): 0.1069 ± 0.0068 kPa | vapor or sublimation pressure (323.4 K): 0.1269 ± 0.008 kPa | vapor or sublimation pressure (325.4 K): 0.1418 ± 0.009 kPa | vapor or sublimation pressure (327.4 K): 0.1665 ± 0.011 kPa | vapor or sublimation pressure (329.4 K): 0.1855 ± 0.012 kPa | vapor or sublimation pressure (331.3 K): 0.2174 ± 0.014 kPa | vapor or sublimation pressure (333.3 K): 0.2476 ± 0.015 kPa | vapor or sublimation pressure (335.3 K): 0.2794 ± 0.018 kPa | vapor or sublimation pressure (337.3 K): 0.3145 ± 0.02 kPa | vapor or sublimation pressure (339.3 K): 0.3534 ± 0.022 kPa | vapor or sublimation pressure (341.3 K): 0.4164 ± 0.026 kPa | vapor or sublimation pressure (343.2 K): 0.4684 ± 0.029 kPa

CCCOC(=O)C(C)O (stereo not given) [propyl 2-hydroxypropanoate]
vapor or sublimation pressure (273.5 K): 0.0152 ± 0.001 kPa | vapor or sublimation pressure (274.6 K): 0.0171 ± 0.001 kPa | vapor or sublimation pressure (276.2 K): 0.019 ± 0.0012 kPa | vapor or sublimation pressure (277.7 K): 0.0222 ± 0.0015 kPa | vapor or sublimation pressure (279.9 K): 0.0274 ± 0.0018 kPa | vapor or sublimation pressure (282.1 K): 0.0332 ± 0.002 kPa | vapor or sublimation pressure (283.3 K): 0.0359 ± 0.0023 kPa | vapor or sublimation pressure (286.2 K): 0.0489 ± 0.0031 kPa and 0.048 ± 0.0031 kPa | vapor or sublimation pressure (287.8 K): 0.055 ± 0.0035 kPa | vapor or sublimation pressure (290.3 K): 0.0664 ± 0.0043 kPa | vapor or sublimation pressure (292.3 K): 0.0793 ± 0.005 kPa | vapor or sublimation pressure (294.3 K): 0.09 ± 0.0058 kPa | vapor or sublimation pressure (298.2 K): 0.1194 ± 0.0076 kPa | vapor or sublimation pressure (299.2 K): 0.1376 ± 0.0089 kPa and 0.1392 ± 0.0088 kPa | vapor or sublimation pressure (301.2 K): 0.1565 ± 0.0098 kPa | vapor or sublimation pressure (301.4 K): 0.1625 ± 0.01 kPa | vapor or sublimation pressure (303.3 K): 0.1866 ± 0.012 kPa | vapor or sublimation pressure (304.2 K): 0.1915 ± 0.012 kPa | vapor or sublimation pressure (305.3 K): 0.2068 ± 0.013 kPa | vapor or sublimation pressure (307.9 K): 0.268 ± 0.017 kPa | vapor or sublimation pressure (308.1 K): 0.256 ± 0.016 kPa | vapor or sublimation pressure (310.3 K): 0.3053 ± 0.019 kPa | vapor or sublimation pressure (312.1 K): 0.3377 ± 0.021 kPa | vapor or sublimation pressure (313.4 K): 0.3713 ± 0.023 kPa | vapor or sublimation pressure (313.6 K): 0.3614 ± 0.023 kPa | vapor or sublimation pressure (315.4 K): 0.4264 ± 0.027 kPa | vapor or sublimation pressure (316 K): 0.4342 ± 0.027 kPa | vapor or sublimation pressure (317 K): 0.4541 ± 0.029 kPa | vapor or sublimation pressure (317.4 K): 0.4789 ± 0.03 kPa | vapor or sublimation pressure (319.4 K): 0.5467 ± 0.034 kPa | vapor or sublimation pressure (320 K): 0.5661 ± 0.035 kPa | vapor or sublimation pressure (321.4 K): 0.6113 ± 0.038 kPa | vapor or sublimation pressure (323 K): 0.6633 ± 0.041 kPa | vapor or sublimation pressure (323.4 K): 0.7043 ± 0.044 kPa | vapor or sublimation pressure (325.4 K): 0.8342 ± 0.052 kPa | vapor or sublimation pressure (327.3 K): 0.9235 ± 0.058 kPa | vapor or sublimation pressure (330.3 K): 1.079 ± 0.067 kPa
